What all share (assay type): functional
For assay [1], the system named is Saccharomyces cerevisiae. The experiment in a line: DNA damaging activity against DNA RS 322YK ([…]) Saccharomyces cerevisiae.
Assay [2] deals with Saccharomyces cerevisiae. The assay can be described thus: DNA damaging activity against RS 188N (RAD+) Saccharomyces cerevisiae.
Assay [3] has as its system Saccharomyces cerevisiae. The experiment in a line: DNA damaging activity against RS 321N Saccharomyces cerevisiae.

Calls of active or inactive are those of the source. The calls are words filed in the database; no cut-off is given here.

On to `CC(=O)CCCCCCCCCCCC[C@H]1CC[C@@H](O)[C@@H](CO)N1`, for which the outcome in the assay with Saccharomyces cerevisiae [1], in the assay with Saccharomyces cerevisiae [2] and in the assay with Saccharomyces cerevisiae [3] was inactive.

In the assay with Saccharomyces cerevisiae [3], `COC1=C(N)C(=O)c2nc(-c3nc(C(=O)O)c(C)c(-c4ccc(OC)c(OC)c4O)c3N)ccc2C1=O` [STREPTONIGRIN] showed an IC12 of 4 µg/mL.

Compound `CC(=O)CCCCCCCCCCCC[C@H]1CC[C@@H](O)[C@@H](C)N1` displayed an IC12 in the assay on Saccharomyces cerevisiae [3] of 17 µg/mL.

Take `CC(=O)CCCCCCCCCCCC[C@H]1CC[C@@H](OC(C)=O)[C@@H](C)N1`: in the assay with Saccharomyces cerevisiae [3], the IC12 stood at 32 µg/mL.

`CC(=O)CCCCCCCCCCCC[C@@H]1CC[C@@H](O)[C@@H](C)N1`: the result with Saccharomyces cerevisiae [1], in the assay with Saccharomyces cerevisiae [2] and with Saccharomyces cerevisiae [3] was inactive.

The values are drawn from ChEMBL document CHEMBL1151220, “Further bioactive piperidine alkaloids from the flowers and green fruits of Cassia spectabilis” (2004).
